Laboratory results taken from patent US20230339991A1, “HYPOXIA-ACTIVATED DNA ALKYLATING AGENT AND MEDICAL USE THEREOF” (ASCENTAWITS PHARMACEUTICALS, LTD., priority 2020, published 2023).
pIC50: −log10 of the molar value. “And” between values parts separate entries of the source, which are not always exact repeats. Identical values can stand only once. Like-named read-outs stand apart in the source and are kept apart here.

How the values were obtained:
AA8 = test: Cell inhibition of different species, normoxic, AA8; format: cell-based, Rat; details: IC50 AA8/H460
From the text: To further compare the cytotoxicity of TH-302 with that of compound A, the following further provide test results for H460 cell line and cells from different species at different test times in the same laboratory, with the same operator and under the same experimental conditions.

[1] = tested on: HuPrime model GA6201 human gastric cancer subcutaneous transplantation PDX tumor; test: GA6201 human gastric cancer subcutaneous PDX model; format: in vivo, BALB/c nude mice
KP-3 = test: Cytotoxicity, pancreatic cancer PA cells KP-3; format: cell-based; details: Homo sapiens
Procedure: (§1) Compounds were exposed at various concentrations for 72 hours, followed by a wash step. Fresh medium was added for growth. The cell was stained to determine the cell survival rate and compared with controls treated with medium only.
In particular, exponentially grown cells were inoculated in 96-well plates at a density of 2×10^3 cells/100 μl/well and incubated for 24 hours at 37° C. and under the conditions of 5% CO2, 95% air and 100% relative humidity before addition of 99 μl of culture solution. The compounds were dissolved in 100% DMSO at 200 times of the desired final test concentration. When the drug was added, an aliquot of 1 μl of the compound at the specified concentration was added to microwells already containing 199 μl of medium to obtain the reported final drug concentration. After adding the drug, plates were incubated for an additional 72 hours at 37° C., 5% CO2, 95% air and 100% relative humidity. The cell assay plate was left to balance for 30 minutes at room temperature and 100 μL of medium was removed from per well. 100 μl CTG reagent (CelltiterGlo kit) was added into each well. The plate was placed on a fast shaker and shaked for 2 min, and kept in dark at room temperature for 30 min. The chemiluminescence signal value was read by Envision instrument. […]

Plasma stability, rat = details: for Remaining percentage (%) / Remaining percentage: Rat plasma; for Remaining percentage: after 30 minutes
Procedure: The frozen plasma was immediately melted in a water bath of 37° C. The plasma was centrifuged at 3, 220 g for 10 minutes to remove the blood clots and the supernatant was collected into a new test tube. The pH of the plasma was checked and recorded. Note: a. Only plasma that has been melted no more than twice since arrival was used; b. Only plasma in the range of pH 7 to pH 8 was used.
1 mM of working solutions of the test compound and the control compound mevinolin were prepared in DMSO. 1 mM of the working solution of the control compound solution in […] was prepared in acetonitrile. 4 μL of the working solution was added to 796 μL of pre-incubated plasma to achieve 5 μM of final concentration. The final concentration of solvent was 0.5%.
[…] The assay is performed in duplicate. At the end of the two hour incubation, 300 μL of quenched solution at room temperature (acetonitrile containing internal standards (acetonitrile, 100 nM Alprazolam, 500 nM Labetalol and 2 μM ketoprofen)) was added to terminate the reaction. Samples at time 0 were prepared by adding 50 μL of standard addition plasma to the new test tubes with 300 μL of quenched solution at room temperature. The test tubes were mixed by vortex for 5 minutes. The samples in the plates were centrifuged at 3, 220×g for 30 minutes at 4° C. to precipitate the proteins. 100 μL of supernatant was transferred to a new plate. The supernatant was diluted with 100 μL of water, mixed well and analysed using LC-MS/MS.

[2] = tested on: DLD-1 BRCA2 KO (BRCA2 deletion) cells; test: Clonogenic assay, DLD-1 BRCA2 KO; format: cell-based; details: for IC90: Homo sapiens, 3 h
Procedure: (§2) The following PSN-1 cells, PANC1 cells, MiaPaCa-2 cells, H460 cells, DLD-1 WT (wild type) cells, DLD-1 BRCA2 KO (BRCA2 deletion) cells were seeded in 10 cm vitreous cell culture plates at specific cell numbers and incubated for 2 days at 37° C. and under the conditions of 5% CO2, 95% air and 100% relative humidity. On day 3, test compounds TH302 or AST-002-P2 at the specific concentrations were added to the cells, and incubated for 3 hours together with the cells under normoxic (21% O2) and hypoxic conditions (<0.01% O2), respectively. After cells were stimulated by compounds, the cells were washed once with 1×PBS and digested into single cells with pancreatic enzymes for cell counting. The above cells in specific cell numbers were reseeded in a new culture plate and cultured for 7 days to perform single cell colony formation. When single cells in compound culture plates stimulated under normoxic conditions proliferated to about 50 cells, the cultures were removed and stained with 0.5% crystal violet for 40 minutes. After staining, cells were counted for colonies using Colony Counter (VWR) and the IC90 was calculated.

[3] = tested on: DLD-1 WT (wild type) cells; test: Clonogenic assay, DLD-1 WT; format: cell-based; details: for IC90: Homo sapiens, 3 h
Procedure: as §2

H460 cancer cells = test: Cytotoxicity on H460 cancer cells, 72 h exposure, CTG; format: cell-based; details: Homo sapiens, NCI-H460
Procedure: The quantification value IC50 for cytotoxicity of a human tumor cell line in vitro was used to compare the cancer cell proliferation inhibition of compounds
as §1
In particular, exponentially grown cells were inoculated in 96-well plates at a density of 2×10^3 cells/100 μl/well and incubated for 24 hours at 37° C. and under the conditions of 5% CO2, 95% air and 100% relative humidity before addition of 99 μl of culture solution. The compounds were dissolved in 100% DMSO at 200 times of the desired final test concentration. When the drug was added, an aliquot of 1 μl of the compound at the specified concentration was added to microwells already containing 199 μl of medium to obtain the reported final drug concentration. After adding the drug, plates were incubated for an additional 72 hours at 37° C., 5% CO2, 95% air and 100% relative humidity. The cell assay plate was left to balance for 30 minutes at room temperature and 100 μL of medium was removed from per well. 100 μl CTG reagent (CelltiterGlo kit) was added into each well. […] The chemiluminescence signal value was read by Envision instrument.

[4] = tested on: human lung cancer NCI-H460 subcutaneous xenograft; test: Human lung cancer NCI-H460 subcutaneous xenograft model, compounds B and C; format: in vivo, BALB/c nude mice; details: for relative tumor inhibition rate TGI (%): QD×5 per cycle, 2 cycles, Day 28
Procedure: BALB/c nude mice were subcutaneously inoculated with human lung cancer NCI-H460 cells to establish human lung cancer subcutaneous transplantation tumor model. […] The positive drug Irinotecan 40 mg/kg group was administered by intraperitoneal injection once every 4 days for 7 times, and observed for 4 days.

[5] = Blood-brain barrier experiment, brain and plasma concentrations after IV dosing; format: in vivo, CD-1 mice; details: CD-1, mouse; for Kp at 0.25 h / Kp at 2 h: brain/plasma, iv, 1 mg/kg; for Kp at 0.25 h: read-out: Mean Ratio (Brain/Plasma); for Kp at 2 h: single animals, read-out: Ratio (Brain/Plasma); for Cmax / Tmax: brain tissue; for Cmax / Tmax / AUC: IV 1 mg/kg; for AUC: plasma
[6] = 21% O2, read-out: IC90 Normoxia
[7] = <0.01% O2, read-out: IC90 Hypoxia

## O=[N+]([O-])c1ccc(C(OP(=O)(N2CC2)N2CC2)C(F)(F)F)c2ccccc12 (racemic) [Compound A]
AA8; exposure 3 days
  Multiplier: Rat/Human: 110
[1]; GA6201 PDX
  effect of tumor growth inhibition compared with isocyclophosphamide: significant advantages
[1]; Group 06, 5-50 mg/kg regimen, day 7
  tumor volume: 123.19 mm^3
[1]; Group 06, 5-50 mg/kg regimen, day 17
  tumor volume: 219.91 mm^3
[1]; Group 06, 5-50 mg/kg regimen, day 21
  tumor volume: 246.57 mm^3
[1]; Group 06, 5-50 mg/kg regimen, day 24
  tumor volume: 271.72 mm^3
[1]; Group 06, 5-50 mg/kg regimen, day 31
  tumor volume: 270.68 mm^3
[1]; Group 06, 5-50 mg/kg regimen, day 35
  tumor volume: 299.31 mm^3
[1]; Group 06, 5-50 mg/kg regimen, day 38
  tumor volume: 277.17 mm^3
[1]; Group 06, 5-50 mg/kg regimen, day 45
  tumor volume: 342.08 mm^3
[1]; Group 06, 5-50 mg/kg regimen, day 49
  tumor volume: 287.47 mm^3
KP-3
  pIC50: 4.58
Plasma stability, rat; 15 min
  Remaining percentage (%): 101 ± 1.33%
Plasma stability, rat; 60 min
  Remaining percentage (%): 88.9 ± 0.537%
Plasma stability, rat; 90 min
  Remaining percentage (%): 84.6 ± 1.20%
Plasma stability, rat; 120 min
  Remaining percentage (%): 69.0% and 69.0 ± 1.10%
Plasma stability, rat; 2 h time course, 0 min
  Remaining percentage (%): 100%
Plasma stability, rat
  Remaining percentage: 52.11%
Plasma stability, rat; time course, 30 min
  Remaining percentage (%): 100 ± 2.23%
Plasma stability, rat; rat plasma
  half-life at 5 µM: 226 min
  plasma stability: unstable

## O=[N+]([O-])c1ccc([C@@H](OP(=O)(N2CC2)N2CC2)C(F)(F)F)c2ccccc12 (single isomer, unassigned) [Compound C]
[2]; [6]
  IC90: > 10 µM
[2]; [7]
  IC90: 0.112 µM
[2]; IC90 ratio normoxic/N2
  HCR: >89
[2]; IC90 ratio normoxic/N2, listed as compound C
  HCR: > 89
[3]; [6]
  IC90: > 0.14 µM
[3]; [7]
  IC90: > 0.14 µM
H460 cancer cells
  pIC50: 7.11
[4]; 20 mg/kg i.p.
  relative tumor inhibition rate TGI (%): 90.56%
[4]; 40 mg/kg i.p.
  relative tumor inhibition rate TGI (%): 94.33%
[4]; group 6, 20 mg/kg, Day35
  complete cure rate on tumors: 20%
[5]
  Kp at 0.25 h: 0.86
  Kp at 2 h: 1.35
  Cmax: 445 ng/g
  Tmax: 4.8 min
  AUC: 190 ng·h/mL

## O=[N+]([O-])c1ccc([C@H](OP(=O)(N2CC2)N2CC2)C(F)(F)F)c2ccccc12 [Compound B]
[4]; 20 mg/kg i.p.
  relative tumor inhibition rate TGI (%): 88.51%
[5]
  Kp at 0.25 h: 1.59
  Kp at 2 h: 1.38
  Cmax: 983 ng/g
  Tmax: 4.8 min
  AUC: 289 ng·h/mL

## CC(OP(=O)(N1CC1)N1CC1)c1ccc([N+](=O)[O-])c2ccccc12 (stereo not drawn) [Compound D]
Plasma stability, rat
  Remaining percentage: 85.49%
Plasma stability, rat; rat plasma
  plasma stability: relatively unstable

## Cn1c(COP(=O)(NCCBr)NCCBr)cnc1[N+](=O)[O-] [TH-302, Evofosfamide]
AA8; exposure 2 h
  Multiplier: Rat/Human: 41.5
[2]; [6]
  IC90: 21.9 µM
[2]; [7]
  IC90: 0.00301 µM
[2]; IC90 ratio normoxic/N2
  HCR: 7277
[1]; Group 02, 60 mg/kg i.p., day 3
  tumor volume: 122.22 mm^3
[1]; Group 02, 60 mg/kg i.p., day 7
  tumor volume: 129.39 mm^3
[1]; Group 02, 60 mg/kg i.p., day 10
  tumor volume: 175.00 mm^3
[1]; Group 02, 60 mg/kg i.p., day 14
  tumor volume: 190.74 mm^3
[1]; Group 02, 60 mg/kg i.p., day 17
  tumor volume: 189.23 mm^3
[1]; Group 02, 60 mg/kg i.p., day 21
  tumor volume: 217.96 mm^3
[1]; Group 02, 60 mg/kg i.p., day 24
  tumor volume: 225.66 mm^3
[1]; Group 02, 60 mg/kg i.p., day 28
  tumor volume: 247.04 mm^3
[1]; Group 02, 60 mg/kg i.p., day 31
  tumor volume: 265.76 mm^3
[1]; Group 02, 60 mg/kg i.p., day 35
  tumor volume: 324.51 mm^3
[1]; Group 02, 60 mg/kg i.p., day 38
  tumor volume: 371.02 mm^3
[1]; Group 02, 60 mg/kg i.p., day 42
  tumor volume: 403.47 mm^3
[1]; Group 02, 60 mg/kg i.p., day 45
  tumor volume: 484.83 mm^3
[1]; Group 02, 60 mg/kg i.p., day 49
  tumor volume: 578.60 mm^3
[1]; Group 02, 60 mg/kg, QDx5/week × 2 wks, i.p., day 0
  tumor volume: 94.15 mm^3
[3]; [6]
  IC90: 26.2 µM
[3]; [7]
  IC90: 0.21 µM
[3]; IC90 ratio normoxic/N2
  HCR: 125
